In patent US8809333B2, “Imidazole, pyrazole, and triazole derivatives useful as antibacterial agents” (Pfizer Inc., priority 2011, dated 2014):
≈ marks a conversion by molar mass, not a printed value. Read-outs that look alike come from different tables or passages of the source.

Legend:
[1] = target: T1, Pseudomonas aeruginosa LpxC enzyme (Pseudomonas aeruginosa, UniProt P47205); test: IC50 assay, LpxC enzyme from P. aeruginosa (BioTrove RapidFire mass spectrometry); format: biochemical
T1 construct: made in house; host or cells: E. coli
T1 sequence (P47205 1-303): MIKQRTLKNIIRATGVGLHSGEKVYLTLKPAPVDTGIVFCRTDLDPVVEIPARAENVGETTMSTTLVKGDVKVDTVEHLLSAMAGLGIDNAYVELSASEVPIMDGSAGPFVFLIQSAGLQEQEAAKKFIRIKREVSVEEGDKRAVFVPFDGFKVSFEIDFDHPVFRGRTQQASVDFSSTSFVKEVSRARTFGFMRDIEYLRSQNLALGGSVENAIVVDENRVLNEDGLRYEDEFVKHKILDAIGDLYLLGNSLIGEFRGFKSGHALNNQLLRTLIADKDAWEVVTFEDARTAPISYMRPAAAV
Method: In order to assess the compounds biological activity, selected in-vitro assays were conducted on selected compounds of Formula I. One of the assays measured the compounds ability to disrupt the synthesis of lipopolysaccharide, LPS, which is a component of the outer membrane of Gram-negative bacteria. Disruption of this synthesis is lethal to the bacteria. The assay determined the compound's ability to inhibit LpxC, which is the first enzyme in the biosynthetic pathway for LPS (measured as IC50). Additionally, MICs (minimal inhibitory concentrations) were determined for several bacteria. The specific protocols are described below:
A) IC50 Assay, LpxC Enzyme from P. Aeruginosa Labeled as PA LpxC Enzyme IC50):
At the end of 1 hour, 5 ul of 1 N HCl was added to stop the enzyme reaction, the plates were centrifuged, and then processed with the BioTrove Rapidfire HTMS Mass Spectrometry System. A no-enzyme control was used in calculating the IC50 values from the percent conversion values.

[2] = tested on: Klebsiella pneumoniae: Ciprofloxacin-resistant isolate, expresses ESBL, clinical isolate (KP-3700); test: MIC determination (CLSI), KP-3700; format: cell-based; details: overnight incubation, lower of duplicate values
Method: (§1) The in vitro antibacterial activity of compounds described in the Examples was evaluated by minimum inhibitory concentration (MIC) testing according to Clinical and Laboratory Standards Institute (CLSI) Guidelines. See: Clinical and Laboratory Standards Institute. Methods for Dilution Antimicrobial Susceptibility Tests for Bacteria that Grow Aerobically; Approved Standard-Eighth Edition. CLSI document M7-A8 [ISBN 1-56238-689-1]. Clinical and Laboratory Standards Institute, 940 West Valley Road, Suite 1400, Wayne, Pa. 19087-1898 USA, 2006; also Clinical and Laboratory Standards Institute. Performance Standards for Antimicrobial Susceptibility Testing; Twentieth Informational Supplement. CLSI document M100-S20 [ISBN1-56238-716-2]. Clinical and Laboratory Standards Institute.
(§2) The MIC determination is a standard laboratory method for evaluating the antibacterial activity of a compound. The MIC represents the lowest drug concentration that inhibits visible growth of bacteria following overnight incubation. […] Typically, the drug concentration range is broken down into 2-fold increments (e.g. 0.06 μg/mL, 0.12 μg/mL. 0.25 μg/mL, 0.50 μg/mL, 1.0 μg/mL, etc.) and the various drug concentrations are all individually incubated overnight with approximately the same number of bacteria. The MIC is then determined by visually inspecting the drug effect at each concentration, and identifying the lowest drug concentration that has inhibited bacterial growth as compared to the drug free control. Typically, bacteria continue to grow at drug concentrations lower than the MIC and don't grow at concentrations at and above the MIC.
(§3) The MIC values described in Tables 2 and 3 below were derived from assays wherein each test compound was evaluated in duplicate. In cases where the duplicate values varied by 0-2-fold, the lower of the two values was reported below. Generally speaking, if the duplicate values varied by more than 2-fold, the assay was considered non-valid and was repeated until the variation between duplicate runs was ≦2-fold. In line with the CLSI guidelines referred to above, both control organisms and reference compounds were utilized in each MIC assay to provide proper quality control. MIC values generated with these control organisms and reference compounds were required to fall within a defined range for the assay to be considered valid and be included herein. Those skilled in the art will recognize that MIC values can and do vary from experiment to experiment. Generally speaking, it should be recognized that MIC values often vary +/−2-fold from experiment to experiment. While a single MIC is reported for each compound and each microorganism, the reader should not conclude that each compound was only tested once. Several of the compounds were subjected to multiple tests. The data reported in Tables 2 and 3 is reflective of the compounds relative activity and different MICs may have been generated on these occasions in line with the guidelines described above.
(§4) The following bacterial strains were used in these MIC determinations:
(3) Klebsiella pneumoniae: Ciprofloxacin-resistant isolate, expresses extended-spectrum beta-lactamases (ESBL), clinical isolate, labeled as KP-3700 in Table 5.

[3] = tested on: Acinetobacter baumannii/haemolyticus: Multidrug-resistant clinical isolate (AB-3167); test: MIC determination (CLSI), AB-3167; format: cell-based; details: Acinetobacter baumannii/haemolyticus multidrug-resistant clinical isolate; overnight incubation; lower of duplicate values; read-out: AB-3167 (MIC)
Method: as §1, §2, §3, §4
(1) Acinetobacter baumannii/haemolyticus: Multidrug-resistant clinical isolate labeled as AB-3167 in Table 5;

[4] = tested on: Pseudomonas aeruginosa UI-18: Wild-type (PA-7); test: MIC determination (CLSI), PA-7; format: cell-based; details: Pseudomonas aeruginosa UI-18 wild-type; overnight incubation; lower of duplicate values; read-out: PA-7 (MIC)
Method: as §1, §2, §3, §4
(4) Pseudomonas aeruginosa UI-18: Wild-type, labeled as PA-7 in Table 5;

[5] = tested on: Escherichia coli EC-1: VOGEL, mouse virulent; test: MIC determination (CLSI), EC-1; format: cell-based; details: Escherichia coli, read-out: EC-1 (MIC)
Method: as §1, §2, §3, §4
(2) Escherichia coli EC-1: VOGEL, mouse virulent labeled as EC-1 in Table 5;

[6] = P. aeruginosa LpxC enzyme 0.1 nM, 25° C., 1 hour, pH 8.0, read-out: PA: IC50

SMILES	IC50 [1, 6] [nM]	KP-3700 (MIC) [2] [µg/mL]	MIC [3] [µg/mL]	MIC [4] [µg/mL]	MIC [5] [µg/mL]	IC50 [1] [nM]
CC(CCn1cc(-c2ccc(C(F)(F)F)cn2)cn1)(C(=O)NO)S(C)(=O)=O (centres unmarked) [Example 76, N-hydroxy-2-methyl-2-(methylsulfonyl)-4-{4-[5-(trifluoromethyl)pyridin-2-yl]-1H-pyrazol-1-yl}butanamide]	37.3	>64.0	> 64	64 (≈ 157 µM)	> 64	
CC(CCn1cc(-c2ccc(-c3cc[nH]n3)cc2)cn1)(C(=O)NO)S(C)(=O)=O (centres unmarked) [Example 70, N-hydroxy-2-methyl-2-(methylsulfonyl)-4-{4-[4-(1H-pyrazol-3-yl)phenyl]-1H-pyrazol-1-yl}butanamide]	4.11	>64.0	> 64	32 (≈ 79.3 µM)	64 (≈ 159 µM)	
CC(CCn1cc(-c2ccc3c(c2)OCCO3)cn1)(C(=O)NO)S(C)(=O)=O (centres unmarked) [Example 63, 4-[4-(2,3-dihydro-1,4-benzodioxin-6-yl)-1H-pyrazol-1-yl]-N-hydroxy-2-methyl-2-(methylsulfonyl)butanamide]	6.75	>64.0	> 64	4 (≈ 10.1 µM)	> 64	
CC(CCn1cc(-c2ccc(-c3csnn3)cc2)cn1)(C(=O)NO)S(C)(=O)=O (centres unmarked) [Example 90, N-hydroxy-2-methyl-2-(methylsulfonyl)-4-{4-[4-(1,2,3-thiadiazol-4-yl)phenyl]-1H-pyrazol-1-yl}butanamide]	1.23	64	> 64	4 (≈ 9.49 µM)	16 (≈ 38 µM)	
CC(CCn1cc(-c2ccc3[nH]c(C(N)=O)cc3c2)cn1)(C(=O)NO)S(C)(=O)=O (centres unmarked) [Example 87, 5-{1-[4-(hydroxyamino)-3-methyl-3-(methylsulfonyl)-4-oxobutyl]-1H-pyrazol-4-yl}-1H-indole-2-carboxamide]	63.6	>64.0	> 64	> 64	> 64	
Cc1cc(-c2cnn(CCC(C)(C(=O)NO)S(C)(=O)=O)c2)ccc1F (centres unmarked) [Example 52, 4-[4-(4-fluoro-3-methylphenyl)-1H-pyrazol-1-yl]-N-hydroxy-2-methyl-2-(methylsulfonyl)butanamide]	6.93	64	> 64	2 (≈ 5.41 µM)	16 (≈ 43.3 µM)	
CC(CCn1cc(-c2ccc(C#N)c(Cl)c2)cn1)(C(=O)NO)S(C)(=O)=O (centres unmarked) [Example 64, 4-[4-(3-chloro-4-cyanophenyl)-1H-pyrazol-1-yl]-N-hydroxy-2-methyl-2-(methylsulfonyl)butanamide]	0.62	>64.0	> 64	4 (≈ 10.1 µM)	64 (≈ 161 µM)	
CC(CCn1cc(-c2ccc(C3(C#N)CC3)cc2)cn1)(C(=O)NO)S(C)(=O)=O (centres unmarked) [Example 66, 4-{4-[4-(1-cyanocyclopropyl)phenyl]-1H-pyrazol-1-yl}-N-hydroxy-2-methyl-2-(methylsulfonyl)butanamide]	2.83	>64.0	> 64	16 (≈ 39.8 µM)	> 64	
Cc1nc2ccc(-c3cnn(CCC(C)(C(=O)NO)S(C)(=O)=O)c3)cc2s1 (centres unmarked) [Example 79, N-hydroxy-2-methyl-4-[4-(2-methyl-1,3-benzothiazol-6-yl)-1H-pyrazol-1-yl]-2-(methylsulfonyl)butanamide]	6.22	>64.0	> 64	16 (≈ 39.2 µM)	64 (≈ 157 µM)	
C[C@@](CCn1cc(-c2cnc3ccccc3n2)cn1)(C(=O)NO)S(C)(=O)=O [Example 9, (2R)—N-hydroxy-2-methyl-2-(methylsulfonyl)-4-[4-(quinoxalin-2-yl)-1H-pyrazol-1-yl]butanamide]	19	>64.0	> 64	> 64	> 64	
C[C@@](CCn1cc(C#Cc2cccc(C#N)c2)cn1)(C(=O)NO)S(C)(=O)=O [Example 11, (2R)-4-{4-[(3-cyanophenyl)ethynyl]-1H-pyrazol-1-yl}-N-hydroxy-2-methyl-2-(methylsulfonyl)butanamide]	12.1	64	> 64	16 (≈ 41.4 µM)	32 (≈ 82.8 µM)	
CC(C)COc1ccc(-c2cnn(CCC(C)(C(=O)NO)S(C)(=O)=O)c2)cn1 (centres unmarked) [Example 81, N-hydroxy-2-methyl-4-{4-[6-(2-methylpropoxy)pyridin-3-yl]-1H-pyrazol-1-yl}-2-(methylsulfonyl)butanamide]	2.07	32	> 64	32 (≈ 78 µM)	8 (≈ 19.5 µM)	
COc1ccc(-c2cnn(CCC(C)(C(=O)NO)S(C)(=O)=O)c2)cc1F (centres unmarked) [Example 60, 4-[4-(3-fluoro-4-methoxyphenyl)-1H-pyrazol-1-yl]-N-hydroxy-2-methyl-2-(methylsulfonyl)butanamide]	20.1	>64.0	> 64	8 (≈ 20.8 µM)	64 (≈ 166 µM)	
COc1ccc(-c2cn(CC[C@](C)(C(=O)NO)S(C)(=O)=O)nn2)c(Cl)c1 [Example 16, (2R)-4-[4-(2-chloro-4-methoxyphenyl)-1H-1,2,3-triazol-1-yl]-N-hydroxy-2-methyl-2-(methylsulfonyl)butanamide]		32	> 64	8 (≈ 19.9 µM)	8 (≈ 19.9 µM)	4.71
CC(CCn1cc(-c2cccc(-c3cc[nH]n3)c2)cn1)(C(=O)NO)S(C)(=O)=O (centres unmarked) [Example 71, N-hydroxy-2-methyl-2-(methylsulfonyl)-4-{4-[3-(1H-pyrazol-3-yl)phenyl]-1H-pyrazol-1-yl}butanamide]	5.12	>64.0	> 64	> 64	> 64	
CC(CCn1cc(-c2ccc3nc(N)sc3c2)cn1)(C(=O)NO)S(C)(=O)=O (centres unmarked) [Example 80, 4-[4-(2-amino-1,3-benzothiazol-6-yl)-1H-pyrazol-1-yl]-N-hydroxy-2-methyl-2-(methylsulfonyl)butanamide]	75.8	>64.0	> 64	> 64	> 64	
